The values that follow come from PMC10598672, “A hybrid energy-based and AI-based screening approach for the discovery of novel inhibitors of JAK3” (Frontiers in Medicine, 2023).

The structures appear in SMILES notation.

The IC50 is the concentration at which inhibition is half-maximal. The low end stands for higher potency, the high end for lower potency.

Experiment [1] has as its target T1, JAK3 (Homo sapiens, UniProt P52333).
T1 sequence (P52333 1-1124): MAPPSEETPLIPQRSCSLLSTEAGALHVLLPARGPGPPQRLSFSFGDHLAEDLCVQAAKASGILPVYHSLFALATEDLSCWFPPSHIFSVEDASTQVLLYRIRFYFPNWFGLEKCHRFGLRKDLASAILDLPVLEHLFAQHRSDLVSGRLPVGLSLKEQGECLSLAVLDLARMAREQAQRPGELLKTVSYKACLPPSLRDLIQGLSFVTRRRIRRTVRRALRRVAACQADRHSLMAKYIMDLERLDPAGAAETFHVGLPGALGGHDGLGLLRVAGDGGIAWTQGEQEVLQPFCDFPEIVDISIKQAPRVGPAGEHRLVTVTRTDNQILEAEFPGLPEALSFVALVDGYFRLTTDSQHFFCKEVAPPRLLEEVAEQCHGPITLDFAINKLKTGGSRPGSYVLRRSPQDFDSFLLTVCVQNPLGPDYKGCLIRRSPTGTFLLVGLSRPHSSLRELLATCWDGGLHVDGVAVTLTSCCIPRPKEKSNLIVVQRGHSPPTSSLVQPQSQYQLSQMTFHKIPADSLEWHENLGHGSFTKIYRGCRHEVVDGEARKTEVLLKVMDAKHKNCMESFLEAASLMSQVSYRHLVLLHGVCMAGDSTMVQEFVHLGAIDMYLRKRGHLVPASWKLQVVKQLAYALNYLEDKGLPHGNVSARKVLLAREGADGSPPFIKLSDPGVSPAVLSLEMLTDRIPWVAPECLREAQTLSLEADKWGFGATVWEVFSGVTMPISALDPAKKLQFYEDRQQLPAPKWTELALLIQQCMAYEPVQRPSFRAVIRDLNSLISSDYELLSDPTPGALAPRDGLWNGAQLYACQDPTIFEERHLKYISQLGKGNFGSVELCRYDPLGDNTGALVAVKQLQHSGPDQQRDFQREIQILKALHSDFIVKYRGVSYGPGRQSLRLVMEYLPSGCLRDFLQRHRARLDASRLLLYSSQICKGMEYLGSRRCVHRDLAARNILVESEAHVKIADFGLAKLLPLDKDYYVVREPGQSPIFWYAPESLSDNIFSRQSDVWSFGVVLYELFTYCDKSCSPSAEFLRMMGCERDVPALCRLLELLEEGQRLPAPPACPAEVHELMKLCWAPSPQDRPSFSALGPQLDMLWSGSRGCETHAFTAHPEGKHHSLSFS
Briefly: HTRF kinase assay, inhibition rate at […]. The following applies: read-out: Inhibit rate (%). The class given is biochemical. A general note: TR-FRET usually uses a lanthanide donor and a delayed reading to cut background.

The target of experiment [2] is T1, JAK3. As to the kind of experiment: HTRF kinase assay (Cryptate/XL665), dose-response IC50. The class given is biochemical.

With `CN1CCC(Nc2nc(Nc3ccc(Oc4ccccc4)cc3)c3c(=O)[nH]cc(Br)c3n2)CC1` [compound 4], the inhibition at 25 µM at JAK3 [1] came to 93.37 ± 0.01%. In the case of `CN1CCN(c2ccc(Nc3ncc4cc(C#N)c(=O)n(C5CCCC5)c4n3)cc2)CC1` [compound 5], the inhibition at 25 µM at JAK3 [1] was 75.2 ± 0.85%. Compound `CC(=O)Nc1cc(Oc2ccc3c(C(=O)Nc4ccc(CN5CCN(C)CC5)c(C(F)(F)F)c4)cccc3c2)ncn1` [compound 8] yielded an IC50 against JAK3 [2] of 4.11 µM. That is a single-digit micromolar value.
